Data reported in publication PMC5193077, “An Allosteric Potentiator of the Dopamine D1 Receptor Increases Locomotor Activity in Human D1 Knock-In Mice without Causing Stereotypy or Tachyphylaxis” (The Journal of Pharmacology and Experimental Therapeutics, 2017).
Where a name gives a salt, the structure may show the parent alone.

Key:
hD1 mice [1] = assay: Locomotor activity (LMA) in hD1 mice; type: in vivo, mouse; details: hD1 mice; for Shape of LMA dose-response curve: DETQ up to 240 mg/kg
From the text: Male hD1 mice, 8–10 weeks old (weighing 18 to 25 g at the time of the experiment), were used. Monitoring of mouse LMA took place in transparent plastic shoebox cages having dimensions of 45 × 25 × 20 cm, with a 1-cm depth of wood chips for absorbent bedding, and covered with a ventilated filtered plastic cage top.
Cages were placed in a rectangular frame containing a grid of 12 photocell beams in an 8 × 4 configuration (Kinder Scientific, Poway, CA) that were positioned 2.5 cm from the floor of the cage for the detection of body movements (ambulations), which were recorded by computer for analysis. Mice were placed inside individual LMA boxes for 1 hour during an acclimation period. Mice were then dosed with test compounds (oral or subcutaneous) and were replaced inside individual LMA boxes for the start of LMA. Photocell activity (total ambulations) was collected for 60 minutes using software from Hamilton Kinder (Poway, CA).
Calculation of data based on total ambulations was done using Excel (Microsoft, Redmond, WA). Graphing and statistical analysis of data were done using one-way analysis of variance followed by Dunnett’s multiple comparison test using GraphPad Prism.

hD1 mice [2] = assay: Video-tracking of horizontal motion, rearing and grooming in hD1 mice; type: in vivo, mouse
From the text: The apparatus for the video-tracking assessment experiment included 12 custom-built video-tracking observation chambers and the HomeCageScan (CleverSys, Reston, VA) software system. The chambers, measuring (in inches) 8 width × 10 length × 8 height, consisted of two end walls, a back wall, a top, and a floor constructed of ¼-in. translucent white acrylic, and one side (front) constructed of clear acrylic. LED strip lighting was placed below the chamber for illumination. A color video camera (640 × 480, 30 frames per second) was placed in front of each chamber to record behavior from a side view. The chambers were located in large sound-attenuating chambers to reduce ambient room noise and isolate lighting. The cameras were connected in groups of four to a quad multiplexer (model NVQC-42N; Nuvico, Englewood, NJ), with each multiplexer connected to its own computer, which then recorded each session to an MPEG file.
At the end of the experiment the files were batch-analyzed by a computer running the CleverSys CageScan video-tracking software. This software can recognize and quantify several different behaviors, including LMA, grooming, rearing, immobility, and feeding behaviors. The current experiment examined behavior in a novel open-field environment rather than home-cage activity, which limited behaviors of interest to LMA, grooming, and rearing.
For HomeCageScan behavioral phenotyping, male D1 knock-in mice (8–12 weeks, 20–25 g body weight) were placed into the observation chambers for a 60-minute habituation session. […] All behavioral activity was monitored and scored by the HomeCageScan system.

human D1 receptor [3] = target: T1, human D1 receptor (Homo sapiens, UniProt P21728); assay: cAMP response in HEK293 cells stably expressing the human D1 receptor; type: cell-based; details: with 12 nM dopamine; % of window between EC20 dopamine and maximum dopamine response
human D1 receptor [4] = target: T1, human D1 receptor; assay: D1 receptor internalization (PathHunter, DiscoveRx)
hD1 and wild-type mice = assay: Seizure observation in mice; type: in vivo, mouse; details: higher doses, unpublished observation
hD1 mice [5] = assay: Locomotor activity (LMA) in hD1 mice; type: in vivo, mouse; details: nonhabituated hD1 mice, 30 min pretreatment
[6] = with EC20 dopamine, 0% = EC20 dopamine response, 100% = maximum dopamine response

T1 sequence (P21728 whole entry): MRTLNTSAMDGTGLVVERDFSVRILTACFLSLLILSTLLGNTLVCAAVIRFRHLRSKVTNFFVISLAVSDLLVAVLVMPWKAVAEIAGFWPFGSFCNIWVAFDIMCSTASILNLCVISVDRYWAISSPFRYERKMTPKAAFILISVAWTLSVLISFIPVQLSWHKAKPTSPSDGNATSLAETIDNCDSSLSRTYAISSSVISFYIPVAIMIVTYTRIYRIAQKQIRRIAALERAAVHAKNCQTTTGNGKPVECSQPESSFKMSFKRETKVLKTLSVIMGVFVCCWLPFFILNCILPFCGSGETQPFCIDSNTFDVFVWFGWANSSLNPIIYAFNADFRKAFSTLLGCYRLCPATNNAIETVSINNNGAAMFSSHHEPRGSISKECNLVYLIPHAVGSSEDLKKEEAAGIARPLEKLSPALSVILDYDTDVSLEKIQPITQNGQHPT

## Oc1cc2c(cc1O)[C@H]1c3ccccc3CN[C@@H]1CC2 (racemic) [dihydrexidine, reference compound]
hD1 mice [1]
  Shape of LMA dose-response curve: bell-shaped curves

## Cl.NC[C@@H]1O[C@H](C23CC4CC(CC(C4)C2)C3)Cc2c1ccc(O)c2O [A-77636, (1R)-3-(1-adamantyl)-1-(aminomethyl)-3,4-dihydro-1H-isochromene-5,6-diol;hydrochloride, reference compound]
hD1 mice [2]
  Horizontal locomotion and rearing: increase in horizontal locomotion and rearing at lower doses
Human D1 receptor [3]
  Top, cAMP, potentiator mode: 121.0%
hD1 mice [1]; once daily for 4 days
  LMA response on repeated once-a-day dosing: completely abolished by day 2
hD1 mice [1]
  Shape of LMA dose-response curve: bell-shaped curves
Human D1 receptor [4]; RA for cAMP divided by RA for internalization
  Pathway Preference cAMP/Internalization: 6.6
Human D1 receptor [4]; top divided by EC50, with 407 nM dopamine
  RA, Internalization: 7.78
Human D1 receptor [4]; [6]
  Bottom, D1 receptor internalization: −12.8%
  Top, D1 receptor internalization: 112.0%

## CCCc1cc2c(s1)CN[C@@H]1CCc3cc(OC(C)=O)c(OC(C)=O)cc3[C@@H]21 [ABT-431, adrogolide hydrochloride]
hD1 and wild-type mice
  Seizures: induced seizures

## CN1CCc2cc(Cl)c(O)cc2[C@H]2c3ccccc3CC[C@@H]21 [SCH39166, (6aS,13bR)-11-chloro-7-methyl-5,6,6a,8,9,13b-hexahydronaphtho[1,2-a][3]benzazepin-12-ol]
hD1 mice [5]
  Dose that lowered DETQ-stimulated activity: 0.03 mg/kg
  Dose that lowered basal exploratory activity: 0.01 mg/kg

## C=CCN1CCc2c(cc(O)c(O)c2Cl)C(c2ccccc2)C1 (stereo not drawn) [SKF 82958, 9-chloro-5-phenyl-3-prop-2-enyl-1,2,4,5-tetrahydro-3-benzazepine-7,8-diol]
hD1 mice [2]
  Grooming (index of stereotyped behavior): supplanted by grooming at higher doses
  Horizontal locomotion and rearing: increase in horizontal locomotion and rearing at lower doses
hD1 mice [1]
  Shape of LMA dose-response curve: bell-shaped curves
